Data: patent US9216197B2, “Topical formulations of tellurium-containing compounds” (BIOMAS LTD., priority 2006, dated 2015)

Tests used:
[1] = AS101 solubility profile: solubility and stability (by coloration detection) in various solvents; format: physicochemical; conditions: for Coloration / Solubility: 10% by weight AS101, ambient temperature, after 24 hours
Experimental: In a search for an improved formulation for topical application, the solubility and stability (by coloration detection) of AS101 in various hydrophilic and lipophilic solvents were determined. Since it is commonly known that topically applied formulations have better skin absorption and feel when the active pharmaceutical ingredient is solubilized or is in a molecular form, a desirable topical formulation should be characterized by high solubility and/or dispersability of the active ingredient therein.
Thus, solutions containing 10% by weight of AS101 in each solvent, were prepared by mixing AS101 in the solvent at ambient temperature.

[2] = Storage of AS101 samples in scintillation glass bottles with aluminum laminated non-sealed caps; format: physicochemical; conditions: 30 days at ambient temperature, scintillation glass bottle with non-sealed cap
Experimental: FIGS. 1A-B present images of the content and packaging components of the containers in which the AS101 powder (FIG. 1A) and the […] AS101 […] solution in DMSO (FIG. 1B) were provided, upon 30 days of storage at ambient temperature.
The white crystalline coarse powder was placed in a scintillation glass bottle with a non-sealed cap.
A 20% (by weight) solution of AS101 in DMSO was prepared. The solution appeared as a yellow liquid with a cloudy dispersion evolving upon mixing. […] However, some unidentified particles were observed.

[3] = Microscopic evaluation of samples and polarized light crystallography; format: physicochemical
Text: Microscopic Evaluation of Samples and Polarized Light Crystallography: Formulation Stability Measurements

[4] = Compatibility with aluminum tube packaging and metal equipment; format: physicochemical; conditions: any contact with metal equipment
[5] = Heating the mixture of AS101 and propylene glycol; format: physicochemical
[6] = AS101 solubility profile: solubility and stability (by coloration detection) in various solvents; format: physicochemical; conditions: hydroxycellulose
rats = conditions: intravenous and intramuscular administration; cited from earlier work

Cl[TeH]1(Cl)(Cl)OCCO1 [AS101, ammonium trichloro(dioxyethylene-O,O′)tellurate]
Coloration ([1]; 1% acetic acid): No | Solubility ([1]; 1% acetic acid): No | Coloration ([1]; Alkyl benzoate): No | Solubility ([1]; Alkyl benzoate): No | Coloration ([1]; Arlamol E): No | Solubility ([1]; Arlamol E): No | Coloration ([1]; Butyleneglycol): No | Solubility ([1]; Butyleneglycol): Yes | Coloration ([1]; DMI): No | Solubility ([1]; DMI): No | Coloration ([1]; DMSO): No | Solubility ([1]; DMSO): Yes | Coloration ([1]; Glycofurol): No | Solubility ([1]; Glycofurol): Yes | Coloration ([1]; Hexylene glycol): No | Solubility ([1]; Hexylene glycol): No | Coloration ([1]; IPM): No | Solubility ([1]; IPM): No | Coloration ([1]; MCT oil): No | Solubility ([1]; MCT oil): No | Coloration ([1]; Mineral oil): No | Solubility ([1]; Mineral oil): No | Coloration ([1]; PEG 200): No | Solubility ([1]; PEG 200): Yes | Coloration ([1]; PEG 400): No | Solubility ([1]; PEG 400): Yes | Coloration ([1]; Propylene Glycol): No | Solubility ([1]; Propylene Glycol): Yes | Coloration ([1]; Silicone oil): Black | Solubility ([1]; Silicone oil): No | Coloration ([1]; Transcutol): No | Solubility ([1]; Transcutol): Yes | Precipitation or re-crystallization of AS101 ([1]; amphiphilic glycolic solvents: PEG, butyleneglycol, gycofurol, propylene glycol and TRANSCUTOL, during the tested period): no precipitation or re-crystallization | State of the aluminum laminate cap after storage [2]: chemically and physically decomposed | Crystals under polarized light ([3]; polarized light): distinct crystals producing birefrigerence | Particle diameter ([3]; powder): 20-40 microns | Color upon contact with metal equipment [4]: dark, black color | Change upon heating the mixture of AS101 and propylene glycol [5]: no change was observed | Solution coloration (compatibility) [6]: unacceptable solution coloration | LD50 relative to the immunologically effective dose (rats): 500-1000 folds
